Measured values taken from patent publication EP0731697B1, “SSI TYRPHOSTINS AND PHARMACEUTICAL COMPOSITIONS” (priority 1993, dated 1995).
Read-outs that look alike come from different tables or passages of the source.

Key:
TNF-α [1] = test: LPS-induced production of TNF-α by activated murine peritoneal macrophages in vitro
Method: The amount of TNF-α was quantitated by assessing the extent of killing of the TNF-α sensitive cell line (A9) essentially as described by Ruff and Gilford, G. E. J. Immunol. […] Briefly, mouse A9 fibroblasts were plated in 96-well flat-bottom micro-titer plates at 30,000 cells /0.1 ml to establish a dense monolayer. After incubation for 24 hr at 37 C in a humidified 5% CO2 atmosphere, cycloheximide was added to a final concentration of 50 ug/ml and 100 ul of serially diluted test samples were added to the wells. After incubation for additional 18 hr the supernatants were carefully aspirated, the monolayer were washed twice with PBS and 200 ul of neutral red solution (0.02%) was added. After incubation for 2 hr, cells were washed and the dye that had been absorbed by the live cells was extracted using 200 ul of 50% ethanol. The concentration of the dye was determined by an ELISA autoreader using a 550 nm filter. Murine TNF-α ELISA kit from ENDOGEN Inc., was used for quancitation of murine TNF-α.
Mice were injected i.p. with 1 ml sodium periodate (5mM). Three to 4 days later, macrophages were washed from the peritoneal cavity with PBS. After centrifugation at 170g for 10 min at 40° C, the cell pellet was resuspended in RPMI 1640 containing 10% heat-inactivated new born calf serum. Adherent macrophage monolayers were obtained by plating the cells in 96-well plastic trays at 4x10^5 cells/well for 2 hr at 37°C in 5% CO2/air. Nonadherent cells were removed by suction and complete medium was added.

PDGFR = conditions: even at concentrations above 100 uM; cited from earlier work
mice [2] = system: mice
[3] = system: Murine fibroblastic cells (A9)
Method: Tyrphostins at different concentration were added 2 hr prior to TNF. After 24 hrs cells viability was determined by vital staining using neutral red.
Recombinant human TNFα is added to a mouse fibroblastic cell line (A9), cultured in the presence of cyclohexamine and cell viability is monitored after 20 hours. […] The percentage of live cells was measured from 2 hours prior to administration until 4 hours after administration for a control and for TNF at concentrations of 0.2 ng/ml, 0.05 ng/ml, and 1.0 ng/ml.

TNF-α [4] = test: LPS induced increase in serum TNF-α levels in mice; type: in vivo; conditions: for serum TNF-α levels: 400 ug/mouse i.p. 2 hrs prior to LPS, bled after 2 hours
Excerpt: TNF-α was implicated to mediate many of the toxic effect of LPS. For example, the effect of SSI 3 on serum TNF-α levels in mice which had been treated with LPS was investigated. LPS induced a rapid increase in serum TNF-α levels. […] […] The bioassay gave somewhat higher levels compared to the ELISA. This finding may indicate that the serum from LPS-treated mice contained in addition to TNF-α, other cytotoxic factors.
The amount of TNF-α was quantitated by assessing the extent of killing of the TNF-α sensitive cell line (A9) essentially as described by Ruff and Gilford, G. E. J. Immunol. 125, 1671-1677, (1980). Briefly, mouse A9 fibroblasts were plated in 96-well flat-bottom micro-titer plates at 30,000 cells /0.1 ml to establish a dense monolayer. After incubation for 24 hr at 37 C in a humidified 5% CO2 atmosphere, cycloheximide was added to a final concentration of 50 ug/ml and 100 ul of serially diluted test samples were added to the wells. After incubation for additional 18 hr the supernatants were carefully aspirated, the monolayer were washed twice with PBS and 200 ul of neutral red solution (0.02%) was added. After incubation for 2 hr, cells were washed and the dye that had been absorbed by the live cells was extracted using 200 ul of 50% ethanol. The concentration of the dye was determined by an ELISA autoreader using a 550 nm filter. Murine TNF-α ELISA kit from ENDOGEN Inc., was used for quancitation of murine TNF-α.

Her-2/neu receptor = Her-2/neu receptor (Homo sapiens, UniProt P04626); conditions: even at concentrations above 100 uM; cited from earlier work
Her-2/neu receptor, sequence (P04626 23-1255): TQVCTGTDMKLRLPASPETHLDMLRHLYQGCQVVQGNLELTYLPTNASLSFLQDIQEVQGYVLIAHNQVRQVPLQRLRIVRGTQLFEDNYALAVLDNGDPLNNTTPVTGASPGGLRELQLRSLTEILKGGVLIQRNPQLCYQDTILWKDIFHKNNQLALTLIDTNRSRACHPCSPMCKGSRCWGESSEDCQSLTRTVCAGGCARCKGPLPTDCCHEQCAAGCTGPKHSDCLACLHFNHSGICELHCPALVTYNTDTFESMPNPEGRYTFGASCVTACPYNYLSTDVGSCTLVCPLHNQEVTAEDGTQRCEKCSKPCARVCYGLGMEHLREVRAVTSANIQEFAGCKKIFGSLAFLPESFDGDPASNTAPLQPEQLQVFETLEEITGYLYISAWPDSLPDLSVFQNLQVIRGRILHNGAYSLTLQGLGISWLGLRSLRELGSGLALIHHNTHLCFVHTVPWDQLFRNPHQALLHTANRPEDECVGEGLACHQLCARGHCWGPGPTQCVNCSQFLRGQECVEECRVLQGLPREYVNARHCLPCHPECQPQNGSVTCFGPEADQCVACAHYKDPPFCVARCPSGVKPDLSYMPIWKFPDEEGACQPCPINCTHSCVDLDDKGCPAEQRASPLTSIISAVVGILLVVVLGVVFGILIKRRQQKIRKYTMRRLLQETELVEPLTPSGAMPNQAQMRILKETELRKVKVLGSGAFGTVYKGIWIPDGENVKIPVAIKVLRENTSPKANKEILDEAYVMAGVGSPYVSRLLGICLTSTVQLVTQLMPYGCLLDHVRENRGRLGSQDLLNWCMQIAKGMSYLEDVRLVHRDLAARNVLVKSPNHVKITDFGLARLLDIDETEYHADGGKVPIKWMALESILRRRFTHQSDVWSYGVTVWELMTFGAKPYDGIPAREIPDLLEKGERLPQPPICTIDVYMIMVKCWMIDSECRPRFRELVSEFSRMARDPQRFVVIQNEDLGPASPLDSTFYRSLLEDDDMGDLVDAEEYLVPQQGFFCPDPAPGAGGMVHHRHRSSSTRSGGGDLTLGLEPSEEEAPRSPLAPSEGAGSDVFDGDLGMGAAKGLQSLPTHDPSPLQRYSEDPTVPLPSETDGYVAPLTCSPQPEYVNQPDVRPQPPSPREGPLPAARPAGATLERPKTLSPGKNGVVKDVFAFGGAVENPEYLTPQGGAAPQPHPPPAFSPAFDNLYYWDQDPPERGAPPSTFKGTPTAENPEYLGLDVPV

[5] = system: murine peritoneal macrophages; test: NO2- production by periodate-activated murine peritoneal macrophages; type: cell-based
Method: Nitrite (NO2-) levels were determined in supernatants at the time indicated, as described herein. (Table 5) Values are expressed as means of triplicate cultures. […] Two additional experiments yielded similar results.
NO2- the product of NO oxidation is used to determine NO produced. Nitrite concentration in supernatants of macrophages was measured by a microplate assay method. 100 ul aliquots of supernatants were incubated with an equal volume of Griess reagent (1% sulfanilamide/O.1% naphthylethylene diamine dihydrochloride/2.5% H3PO4) at room temperature for 10 min. The absorbance at 550nm was determined in a microplate reader. Sodium nitrite was used as a standard.
Mice were injected i.p. with 1 ml sodium periodate (5mM). Three to 4 days later, macrophages were washed from the peritoneal cavity with PBS. After centrifugation at 170g for 10 min at […], the cell pellet was resuspended in RPMI 1640 containing 10% heat-inactivated new born calf serum. Adherent macrophage monolayers were obtained by plating the cells in 96-well plastic trays at 4x10^5 cells/well for 2 hr at 37°C in 5% CO2/air. Nonadherent cells were removed by suction and complete medium was added. […]

mice [6] = test: LPS toxicity and mortality in mice sensitized with galactosamine; type: in vivo, mice (strain (CD1))
Method: In this model for organ failure, mice (strain (CD1)) are injected (i.p.) simultaneously with galactosamine (18 mg/mouse) and LPS (50 ng/mouse). The LD50 of LPS used in this model is approximately 30,000 lower than the LD50 of LPS used alone. The main toxic manifestation in this model is liver damage and mice develop severe hypoglycemia and die within 7-8 hours.
Serial blood glucose determinations were done in individual animals (2 mice per group). […] Administration of the tyrphostins SSI 3, 400 ug/mouse or SSI 17, 200 ug/mouse 2 hours prior to galactosamine and LPS, prevents hypoglycemia (blood glucose level were approximately […] at 0 and the same after 24 hours) and mortality for over 5 days.

granulocytes = test: LPS-induced granulocyte accumulation in lungs and blood leukocyte changes; type: in vivo, Mouse
Excerpt: As shown, tyrphostins exert a dramatic protective effect against LPS-induced lethal toxicity. Of the effects studied, only LPS-induced accumulation of granulocytes in the lungs and alteration in blood lymphocyte and granulocytes were not affected by SSI 3. […] The indication is therefore that tyrphostins are effective in preventing septic shock following Gram-negative sepsis, experimentally or clinically.
Mouse blood leukocyte count and differential analysis were done using Cell-Dyn 1600, Hematology Analyzer (Sequoia Turner Corporation, U.S.A).

mice [7] = test: LPS-induced lethal toxicity in mice
p42^MAPK = test: LPS-induced tyrosine phosphorylation in macrophages; type: cell-based; conditions: murine peritoneal macrophages pre-treated with protective concentrations
Excerpt: LPS-induced tyrosine phosphorylation of a 42 kD protein in murine peritoneal macrophages was inhibited by pre-treating the cells as before with protective concentrations of SSI 3. This protein band was identified as p42^MAPK. […] (Stefanova et al., supra.)

## N#CC(C#N)=Cc1ccc([N+](=O)[O-])c(O)c1 [SSI 3]
TNF-α [1]; LPS +
  TNF-α: <5 pg/mL
TNF-α [1]; LPS -
  TNF-α: <5 pg/mL
TNF-α [1]; among the tyrphostins tested
  ability to inhibit LPS-induced production of TNF-α by activated murine peritoneal macrophages in vitro: most potent
PDGFR
  effect on PDGFR: no effect
Mice [2]; 200 ug/mouse, LPS 1.5 mg/mouse
  mice survived: 3 out of 5 mice
Mice [2]; 12 h
  mice (still alive): 20 mice
Mice [2]; 36 h
  mice (still alive): 18 mice
Mice [2]; 60 h
  mice (still alive): 18 mice
[3]
  blocking TNF-α induced cytotoxicity in vitro: active
[3]; A9 cells, 24 hours with TNF, cyclohexamide 50 ug/ml, tyrphostins added 2 hr prior to TNF, neutral red
  TNF-α induced cytotoxicity, in vitro: reduced
[3]; SSI 3 50 uM, SSI 16 2 uM, SSI 17 2 and 10 uM, A9 cells with cyclohexamine, viability after 20 hours, TNF 0.2, 0.05 and 1.0 ng/ml
  TNF toxicity (percentage of live cells): prevent TNF toxicity to different degrees
TNF-α [4]; higher of two printed values, presumably bioassay, LPS alone 14
  serum TNF-α levels: 4 ng/mL
TNF-α [4]; lower of two printed values, presumably ELISA, LPS alone 7
  serum TNF-α levels: 3 ng/mL
TNF-α [4]; LPS 200 µg/mouse, AG 300 µg/mouse 2 hrs prior to LPS, 1hr, mean (two single values)
  Serum TNF-α: 2.8 (1.2, 4.4) ng/ml
TNF-α [4]; LPS 200 µg/mouse, AG 300 µg/mouse 2 hrs prior to LPS, 2hr, mean (two single values)
  Serum TNF-α: 3.6 (2.7, 4.5) ng/ml
TNF-α [4]; no LPS (-), AG 300 µg/mouse, 1hr
  Serum TNF-α: 16.3 ng/mL
Her-2/neu receptor
  effect on Her-2/neu receptor: no effect
[5]; 50 um, added 2 hours prior to LPS, 24 hours
  LPS induced NO production: markedly inhibit
[5]; 50 um, from an initial level of 70 uM (no LPS), 24 hours
  NO production: ~30 µM
[5]; 50 um, from an initial level of 40 (10 ug/ml of LPS), 24 hours
  NO production: approximately 20 uM
[5]; LPS (10 mg/ml)
  NO2- production in unstimulated and LPS-stimulated periodate-activated murine macrophages: effectively inhibited
[5]; SSI 20 uM, LPS 10 ug, 1 DAY
  NO2- Production by Macrophages: 30,2 µg
[5]; SSI 20 uM, LPS 10 ug, 2 DAY
  NO2- Production by Macrophages: 91 µg
[5]; SSI 20 uM, LPS 10 ug, 3 DAY
  NO2- Production by Macrophages: 90,1 µg
[5]; SSI 20 uM, no LPS, 1 DAY
  NO2- Production by Macrophages: 11,8 µg
[5]; SSI 20 uM, no LPS, 2 DAY
  NO2- Production by Macrophages: 17,5 µg
[5]; SSI 20 uM, no LPS, 3 DAY
  NO2- Production by Macrophages: 7,5 µg
[5]; SSI 50uM, LPS 10 ug, 1 DAY
  NO2- Production by Macrophages: 6,1 µg
[5]; SSI 50uM, LPS 10 ug, 2 DAY
  NO2- Production by Macrophages: 31,4 µg
[5]; SSI 50uM, LPS 10 ug, 3 DAY
  NO2- Production by Macrophages: 19,2 µg
[5]; SSI 50 uM, no LPS, 1 DAY
  NO2- Production by Macrophages: 5 µg
[5]; SSI 50 uM, no LPS, 2 DAY
  NO2- Production by Macrophages: 8,6 µg
[5]; SSI 50 uM, no LPS, 3 DAY
  NO2- Production by Macrophages: 4,8 µg
Mice [6]; after 24 hours, SSI 3 400 ug/mouse or SSI 17 200 ug/mouse 2 hours prior to galactosamine (18 mg/mouse) and LPS (50 ng/mouse), 2 mice per group
  blood glucose level: approximately 100 % mg
Mice [6]; mortality for over 5 days, SSI 3 400 ug/mouse or SSI 17 200 ug/mouse 2 hours prior to galactosamine and LPS
  hypoglycemia and mortality: prevents
granulocytes; LPS-induced
  alteration in blood lymphocyte and granulocytes: not affected
granulocytes; mouse, in vivo
  LPS-induced accumulation of granulocytes in the lungs: not affected
Mice [7]; 400 ug/mouse i.p. two hrs prior to LPS 1.5 mg/mouse, within 5 days, 2 mice out of 20, LPS alone 95%
  extent of lethality: 10%
Mice [7]; LPS 1.5 mg/mouse, administered 2 hours prior to LPS
  minimal dose that provided essentially full protection against LPS induced lethal toxicity: 400 ug/mouse
Mice [7]; administered 2 hours after LPS
  protective effect on the LPS-induced lethal toxicity: essentially no protective effect
Mice [7]; administered at the time of LPS treatment, compared with 2 hr prior to LPS
  preventing the lethal toxicity: less effective
Mice [7]; doses of 100 and 200 ug/mouse, 5 mice over 6 days
  protection against LPS induced lethal toxicity: partial protection
p42^MAPK
  LPS-induced tyrosine phosphorylation of a 42 kD protein: inhibited
